The first assay concerns the target T1, Type-1 angiotensin II receptor (Homo sapiens) (UniProt P30556).
T1 sequence (whole entry): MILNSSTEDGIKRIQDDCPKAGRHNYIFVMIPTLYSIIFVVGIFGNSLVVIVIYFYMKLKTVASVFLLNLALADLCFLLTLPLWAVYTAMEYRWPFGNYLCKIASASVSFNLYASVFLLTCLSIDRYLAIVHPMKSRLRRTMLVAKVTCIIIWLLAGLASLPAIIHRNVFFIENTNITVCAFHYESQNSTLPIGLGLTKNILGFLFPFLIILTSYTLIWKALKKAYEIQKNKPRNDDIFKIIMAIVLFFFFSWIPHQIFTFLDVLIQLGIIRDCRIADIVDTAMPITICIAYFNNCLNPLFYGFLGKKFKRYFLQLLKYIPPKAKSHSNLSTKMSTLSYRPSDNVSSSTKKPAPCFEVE
The assay is described as follows: (§1) Antagonist activity at angiotensin 2 type-1 receptor (unknown origin).
What is called pIC50 is the IC50 on a negative log10 scale, so that one unit is a factor of ten. `CCCCc1ncc(/C=C2/C(=O)N(CCCC)C(=O)N2Cc2ccc(-c3ccccc3)cc2)n1Cc1ccc(C(=O)OC)cc1` displayed a negative-log IC50 (pIC50) of 6.05.

For a further assay, the target named is T2, Type-1 angiotensin II receptor (Homo sapiens, UniProt P30556).
T2 sequence (P30556 whole entry): T1 sequence (whole entry)
The description is as §1.
Usually IC50 stands for the concentration that gives 50% inhibition. A lower IC50 goes with inhibition by little substance. For `CCCCc1ncc(/C=C2/C(=O)N(CCCC)C(=O)N2Cc2ccc(N)cc2)n1Cc1ccc(C(=O)OC)cc1`, the half-inhibitory concentration (IC50) is 3 nM.

`CCCCc1ncc(/C=C2\C(=O)NC(=O)N2CCC(C)C)n1Cc1ccc(C(=O)O)cc1` came in with a half-maximal inhibitory concentration (IC50) of 4.9 nM.

`CCCCc1ncc(/C=C2/C(=O)N(CCC)C(=O)N2Cc2csc(C)n2)n1Cc1ccc(C(=O)OC)cc1`: it took 9 nM to reach half-maximal inhibition (IC50). Same read-out and setting: in the case of `CCCCc1ncc(/C=C2/C(=O)N(CCCC)C(=O)N2Cc2ccc(OC)cc2)n1Cc1ccc(C(=O)OC)cc1` it was 9.8 nM; in that of `CCCCc1ncc(/C=C2/C(=O)N(CCCC)C(=O)N2Cc2ccc3ccccc3c2)n1Cc1ccc(C(=O)OC)cc1`, 104 nM. On to `CCCCc1ncc(/C=C2/C(=O)N(CCCC)C(=O)N2Cc2cc(C)cs2)n1Cc1ccc(C(=O)O)cc1`, for which inhibition was half-maximal at 1.5 nM (IC50). As to `CCCCc1ncc(/C=C2/C(=O)NC(=O)N2Cc2cccs2)n1Cc1ccc(C(=O)OC)cc1`, the IC50 came out at 7.1 nM. The compound `CCCCc1ncc(/C=C2/C(=O)N(CCCC)C(=O)N2Cc2ccc(O)c(O)c2)n1Cc1ccc(C(=O)OC)cc1` displayed an IC50 of 4.9 nM. `CCCCc1ncc(/C=C2/C(=O)N(CCCC)C(=O)N2Cc2csc(C)n2)n1Cc1ccc(C2(C(=O)O)CCCC2)cc1` came in with a concentration for half-maximal inhibition (IC50) of 8 nM. On the same count and under the same terms, in the case of `CCCCc1ncc(/C=C2/C(=O)N(CCCC)C(=O)N2C=C(C)C)n1Cc1ccc(C(=O)OC)cc1` it was 11.1 nM.

Consider `CCCCc1ncc(/C=C2/C(=O)NC(=O)N2CCCC)n1Cc1ccc(-c2ccccc2-c2nn[nH]n2)cc1`, for which inhibition was half-maximal at 1.4 nM (IC50). The same measure, in the same setting: in the case of `CCCCc1ncc(/C=C2/C(=O)N(CCCC)C(=O)N2Cc2ccc(Cl)cc2)n1Cc1ccc(C(=O)OC)cc1` it was 17.6 nM; in that of `CCCCc1ncc(/C=C2/C(=O)N(CCCC(F)(F)F)C(=O)N2Cc2csc(C)n2)n1Cc1ccc(C(=O)OC)cc1`, 70 nM; in that of `CCCCc1ncc(/C=C2/C(=O)N(CCCC)C(=O)N2Cc2ccc(C#N)cc2)n1Cc1ccc(C(=O)OC)cc1`, 11.1 nM.

On to `CCCCc1ncc(/C=C2\C(=O)N(CCCC)C(=O)N2Cc2cccs2)n1Cc1ccc(C(=O)O)cc1`, for which the concentration for half-maximal inhibition (IC50) came out at 0.6 nM.

Regarding `CCCCc1ncc(/C=C2/C(=O)N(C)C(=O)N2Cc2csc(C)n2)n1Cc1ccc(C(=O)OC)cc1`, the IC50 was determined as 16.6 nM. As to `CCCCc1ncc(/C=C2/C(=O)N(CCCC)C(=O)N2Cc2ccc(C)cc2)n1Cc1ccc(C(=O)OC)cc1`, the concentration for half-maximal inhibition (IC50) was determined as 34.6 nM. Same read-out and setting: under `CCCCc1ncc(/C=C2/C(=O)NC(=O)N2Cc2ccc(Cl)cc2)n1Cc1ccc(C(=O)O)cc1` stands 3 nM; under `CCCCc1ncc(/C=C2/C(=O)N(CCCC)C(=O)N2Cc2ccc(C(F)(F)F)cc2)n1Cc1ccc(C(=O)OC)cc1`, 159 nM.

`CCCCc1ncc(/C=C2/C(=O)N(CCCC)C(=O)N2Cc2ccc(C)s2)n1Cc1ccc(C(=O)O)cc1` displayed a half-maximal inhibitory concentration (IC50) of 0.6 nM.

`CCCCc1ncc(/C=C2\C(=O)NC(=O)N2CCCC)n1Cc1ccc(-c2nn[nH]n2)cc1` came in with a half-inhibitory concentration (IC50) of 4.2 nM. Consider `CCCCc1ncc(/C=C2/C(=O)N(CCCC)C(=O)N2CCCC)n1Cc1ccc(S(=O)(=O)NC(F)(F)F)cc1`, for which the 50% inhibitory concentration (IC50) was found to be 29.6 nM. Take `CCCCc1ncc(/C=C2/C(=O)N(CCCC)C(=O)N2Cc2csc(N)n2)n1Cc1ccc(C(=O)O)cc1`: the IC50 was 0.6 nM. Same read-out and setting: in the case of `CCCCc1ncc(/C=C2\C(=O)N(CCCC)C(=O)N2Cc2csc(N)n2)n1Cc1ccc(C(=O)O)cc1` it was 0.5 nM. `CCCCc1ncc(/C=C2/C(=O)NC(=O)N2Cc2ccccc2)n1Cc1ccc(C(=O)O)cc1` returned a half-maximal inhibitory concentration (IC50) of 4 nM. For the compound `CCCCc1ncc(/C=C2/C(=O)N(CCCC)C(=O)N2Cc2c[nH]c(C)n2)n1Cc1ccc(C(=O)OC)cc1`, 245 nM corresponded to half-maximal inhibition (IC50). `CCCCc1ncc(/C=C2/C(=O)N(CCCC)C(=O)N2Cc2cccc(Cl)c2)n1Cc1ccc(C(=O)OC)cc1` gave an IC50 of 117 nM.

For the compound `CCCCc1ncc(/C=C2/C(=O)N(CCCC)C(=O)N2Cc2cccs2)n1Cc1ccc(C(=O)O)cc1`, the IC50 turned out to be 0.7 nM. On the same count and under the same terms, under `CCCCc1ncc(/C=C2/C(=O)NC(=O)N2CCCC)n1Cc1ccc(-c2nn[nH]n2)cc1` stands 7.1 nM; under `CCCCc1ncc(/C=C2/C(=O)N(CCCC)C(=O)N2Cc2cccc(C)c2)n1Cc1ccc(C(=O)OC)cc1`, 18.5 nM; under `CCCCc1ncc(/C=C2/C(=O)NC(=O)N2CCC(C)C)n1Cc1ccc(C(=O)O)cc1`, 6.6 nM. As to `CCCCc1ncc(/C=C2\C(=O)NC(=O)N2CCCC)n1Cc1ccc(C2(C(=O)OC)CCCC2)cc1`, the 50% inhibitory concentration (IC50) stood at 2.5 nM. `CCCCc1ncc(/C=C2/C(=O)N(CCCC)C(=O)N2Cc2ccoc2)n1Cc1ccc(C(=O)OC)cc1` yielded a half-inhibitory concentration (IC50) of 8.3 nM. `CCCCc1ncc(/C=C2/C(=O)N(CCCC)C(=O)N2Cc2c[nH]cn2)n1Cc1ccc(C(=O)OC)cc1` showed a concentration for half-maximal inhibition (IC50) of 54.5 nM. In the case of `CCCCc1ncc(/C=C2/C(=O)NC(=O)N2Cc2cccs2)n1Cc1ccc(C(=O)O)cc1`, the IC50 turned out to be 2.3 nM. Same read-out and setting: under `CCCCc1ncc(/C=C2/C(=O)N(CCCC)C(=O)N2Cc2ccsc2)n1Cc1ccc(C(=O)O)cc1` stands 0.9 nM. Compound `CCCCc1ncc(/C=C2/C(=O)N(CCCC)C(=O)N2Cc2ccc(-c3ccccc3)cc2)n1Cc1ccc(C(=O)OC)cc1` had an IC50 of 884 nM. On the same count and under the same terms, in the case of `CCCCc1ncc(/C=C2\C(=O)N(CCCC)C(=O)N2Cc2csc(C)n2)n1Cc1ccc(C(=O)O)cc1` it was 1.7 nM; in that of `CCCCc1ncc(/C=C2\C(=O)NC(=O)N2Cc2ccccc2)n1Cc1ccc(C(=O)O)cc1`, 3.4 nM. In the case of `CCCCc1ncc(/C=C2/C(=O)N(CCCC)C(=O)N2CCc2csc(Br)c2)n1Cc1ccc(C(=O)OC)cc1`, the IC50 came to 25.4 nM. The compound `CCCCc1ncc(/C=C2\C(=O)NC(=O)N2Cc2cccs2)n1Cc1ccc(C(=O)O)cc1` had a half-inhibitory concentration (IC50) of 2.6 nM. In turn, `CCCCc1ncc(/C=C2/C(=O)N(CCCC)C(=O)N2Cc2csc(C)n2)n1Cc1ccc(C(=O)OC)cc1` had a half-inhibitory concentration (IC50) of 1.9 nM. The compound `CCCCc1ncc(/C=C2/C(=O)N(CCCC)C(=O)N2c2ccccc2)n1Cc1ccc(C(=O)OC)cc1` showed an IC50 of 6.1 nM. As for `CCCCc1ncc(/C=C2/C(=O)N(CCCC)C(=O)N2Cc2ccc(C(=O)OC)s2)n1Cc1ccc(C(=O)OC)cc1`, the 50% inhibitory concentration (IC50) is 4.2 nM. Turning to `CCCCc1ncc(/C=C2/C(=O)NC(=O)N2CCCC)n1Cc1ccc(S(=O)(=O)NC(F)(F)F)cc1`, half-maximal inhibition (IC50) required 3.3 nM. In turn, `CCCCc1ncc(/C=C2/C(=O)NC(=O)N2CCCC)n1Cc1ccc(C(=O)OC)cc1` had an IC50 of 3.5 nM. Compound `CCCCc1ncc(/C=C2/C(=O)N(CSCC)C(=O)N2Cc2csc(C)n2)n1Cc1ccc(C(=O)OC)cc1` returned a half-inhibitory concentration (IC50) of 9.6 nM.

As to `CCCCc1ncc(/C=C2/C(=O)N(CCCO)C(=O)N2Cc2csc(C)n2)n1Cc1ccc(C(=O)OC)cc1`, half-maximal inhibition (IC50) required 47.9 nM. Consider `CCCCc1ncc(/C=C2\C(=O)N(CCCC)C(=O)N2CCCC)n1Cc1ccc(C(=O)O)cc1`, for which the concentration for half-maximal inhibition (IC50) came to 0.5 nM. In turn, `CCCCc1ncc(/C=C2/C(=O)N(CCCC)C(=O)N2Cc2ccsc2)n1Cc1ccc(C(=O)OC)cc1` returned a half-inhibitory concentration (IC50) of 4.8 nM.

These data come from ChEMBL document CHEMBL3045634, “Quantitative structure activity relationship analysis of angiotensin II AT1 receptor antagonists” (Med Chem Res, 2010).
